Data: US11492385B2, “Long-acting co-agonists of the glucagon and GLP-1 receptors” (Merck Sharp & Dohme Corp., priority 2015, dated 2022)
Read-outs that look alike come from different tables or passages of the source. Starred links: 1 amine or outer side, 2 acyl side, 3 side chain; linkers in the order of their positions; H or OH if unused. Non-standard residues stand in square brackets, D forms with d. Residues, ends and D or L forms follow the SMILES beside them. Groups on a side chain read outwards from the residue. *: point of attachment. Phe(4-CH2NH2) = NCc1ccc(C[C@H](N)C(=O)O)cc1; C18 diacid = O=C(O)CCCCCCCCCCCCCCCCC(=O)*; C17 diacid = O=C(O)CCCCCCCCCCCCCCCC(=O)*; αMeW = C[C@](N)(Cc1c[nH]c2ccccc12)C(=O)O; C16 diacid = O=C(O)CCCCCCCCCCCCCCC(=O)*; γGlu = O=C(O)[C@H](CCC(=O)[*:2])N[*:1]; Met(O2) = CS(=O)(=O)CC[C@H](N)C(=O)O; Palmitoyl = CCCCCCCCCCCCCCCC(=O)*; αMeD = C[C@](N)(CC(=O)O)C(=O)O; AEEA = NCCOCCOCC(=O)O; Aib = CC(C)(N)C(=O)O

Columns and labels:
human GCGR = target: T1, human GCGR (Homo sapiens, UniProt P47871); assay: cAMP activity assay, cells expressing human GCGR; format: cell-based; settings: for EC50: cAMP production, cells expressing human GCGR, assay buffer with or without 20% human serum (not stated which); for hGCGR/hGLP1R (hTone): ratio of human GCGR EC50 to human GLP1R EC50
T1 construct: expressed in transfected cells; kept under Blasticidin and Hygromycin selection
Procedure: (§1) Activity of the peptides at the Glucagon receptor (GCGR) and GLP-1 receptor (GLP1R) was measured in a cAMP activity assay. Peptides were dissolved in 100% DMSO and serially diluted to generate 10 point titrations. The peptide solutions were then transferred into 384-well assay plates (150 nL/well). […] Production of cAMP was determined using […] kits (DiscoverX) following manufacturer protocol. The plates were incubated for overnight at room temperature in the dark. Luminescence was measured using an EnVision Multilabel plate reader (Perkin Elmer). Native GLP-1 and Glucagon (Bachem) are used as control peptides. EC50 values were calculated using uses a 4 parameter logistic fit based on the Levenberg-Marquardt algorithm.

human GLP1R = target: T2, human GLP1R (Homo sapiens, UniProt P43220); assay: cAMP activity assay, cells expressing human GLP1R; format: cell-based; settings: cAMP production, assay buffer with or without 20% human serum (not stated which)
T2 construct: expressed in transfected cells; kept under Blasticidin and Hygromycin selection
Procedure: as §1

T1 sequence (P47871 26-477): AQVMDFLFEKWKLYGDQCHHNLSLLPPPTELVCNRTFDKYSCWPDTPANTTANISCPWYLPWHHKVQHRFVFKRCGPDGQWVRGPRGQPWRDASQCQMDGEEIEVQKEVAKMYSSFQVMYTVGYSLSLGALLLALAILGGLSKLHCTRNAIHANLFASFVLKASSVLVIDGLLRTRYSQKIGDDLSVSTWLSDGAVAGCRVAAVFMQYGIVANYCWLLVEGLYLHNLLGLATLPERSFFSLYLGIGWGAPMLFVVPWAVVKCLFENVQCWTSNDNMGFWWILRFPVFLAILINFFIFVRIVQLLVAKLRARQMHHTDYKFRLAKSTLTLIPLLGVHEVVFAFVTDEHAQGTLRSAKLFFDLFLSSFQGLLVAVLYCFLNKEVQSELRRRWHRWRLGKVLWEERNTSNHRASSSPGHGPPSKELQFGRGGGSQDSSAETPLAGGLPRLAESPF
T2 sequence (P43220 24-463): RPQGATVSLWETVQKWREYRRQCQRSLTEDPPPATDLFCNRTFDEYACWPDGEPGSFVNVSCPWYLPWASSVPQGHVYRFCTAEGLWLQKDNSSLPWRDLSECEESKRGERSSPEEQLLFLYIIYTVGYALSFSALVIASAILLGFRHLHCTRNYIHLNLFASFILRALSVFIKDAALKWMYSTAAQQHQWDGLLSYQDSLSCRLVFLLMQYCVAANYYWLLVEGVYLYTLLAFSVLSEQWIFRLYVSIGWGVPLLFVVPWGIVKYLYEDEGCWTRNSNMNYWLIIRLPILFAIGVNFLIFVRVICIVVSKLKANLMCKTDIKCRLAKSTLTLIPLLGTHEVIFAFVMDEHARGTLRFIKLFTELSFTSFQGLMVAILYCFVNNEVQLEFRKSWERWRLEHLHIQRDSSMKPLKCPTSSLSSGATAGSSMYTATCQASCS

Row | SMILES | EC50 (human GCGR; read-out: GCGR EC50 human) | hGCGR/hGLP1R (hTone) (human GCGR) | EC50 (human GLP1R) | EC50 (human GCGR; GCGR EC50 human)
1 | CC(C)C[C@H](NC(=O)[C@H](Cc1ccc(O)cc1)NC(=O)[C@H](CCCCN)NC(=O)[C@H](CO)NC(=O)[C@H](Cc1ccc(O)cc1)NC(=O)[C@H](CC(=O)O)NC(=O)[C@H](CO)NC(=O)[C@@H](NC(=O)[C@H](Cc1ccccc1)NC(=O)[C@@H](NC(=O)CNC(=O)[C@H](CCC(N)=O)NC(=O)C(C)(C)NC(=O)[C@@H](N)Cc1c[nH]cn1)[C@@H](C)O)[C@@H](C)O)C(=O)N[C@@H](CC(=O)O)C(=O)N[C@@H](C)C(=O)N[C@@H](CCCNC(=N)N)C(=O)N[C@@H](C)C(=O)N[C@@H](C)C(=O)N[C@@H](CCCCNC(=O)COCCOCCNC(=O)COCCOCCNC(=O)CC[C@H](NC(=O)CCCCCCCCCCCCCCC(=O)O)C(=O)O)C(=O)N[C@@H](CC(=O)O)C(=O)N[C@@H](Cc1ccccc1)C(=O)N[C@H](C(=O)N[C@@H](CCC(N)=O)C(=O)N[C@@H](Cc1c[nH]c2ccccc12)C(=O)N[C@@H](CC(C)C)C(=O)N[C@@H](CCS(C)(=O)=O)C(=O)N[C@@](C)(CC(=O)O)C(=O)N[C@H](C(N)=O)[C@@H](C)O)C(C)C [compound 41] (H-H[Aib]QGTFTSDYSKYLDARAAK([AEEA-AEEA-γGlu-C16 diacid])DFVQWL[Met(O2)][αMeD]T-NH2) | 0.05 nM | 3.13 | 0.02 nM | 
2 | CC(C)C[C@H](NC(=O)[C@H](Cc1ccc(O)cc1)NC(=O)[C@H](CCCCN)NC(=O)[C@H](CO)NC(=O)[C@H](Cc1ccc(O)cc1)NC(=O)[C@H](CC(=O)O)NC(=O)[C@H](CO)NC(=O)[C@@H](NC(=O)[C@H](Cc1ccccc1)NC(=O)[C@@H](NC(=O)CNC(=O)[C@H](CCC(N)=O)NC(=O)C(C)(C)NC(=O)[C@@H](N)Cc1c[nH]cn1)[C@@H](C)O)[C@@H](C)O)C(=O)N[C@@H](CC(=O)O)C(=O)N[C@@H](CCC(=O)O)C(=O)N[C@@H](CCCNC(=N)N)C(=O)N[C@@H](C)C(=O)N[C@@H](C)C(=O)N[C@@H](CCC(N)=O)C(=O)N[C@@H](Cc1ccc(CNC(=O)COCCOCCNC(=O)COCCOCCNC(=O)CC[C@H](NC(=O)CCCCCCCCCCCCCCC(=O)O)C(=O)O)cc1)C(=O)N[C@@H](Cc1ccccc1)C(=O)N[C@H](C(=O)N[C@@H](CCC(N)=O)C(=O)N[C@@H](Cc1c[nH]c2ccccc12)C(=O)N[C@@H](CC(C)C)C(=O)N[C@@H](CC(C)C)C(=O)N[C@@H](CCCCN)C(=O)N[C@H](C(N)=O)[C@@H](C)O)C(C)C [compound 27] (H-H[Aib]QGTFTSDYSKYLDERAAQ[Phe(4-CH2NH2)]([AEEA-AEEA-γGlu-C16 diacid])FVQWLLKT-NH2) | 0.44 nM | 9.24 | 0.05 nM | 
3 | CC(C)C[C@H](NC(=O)[C@H](Cc1ccc(O)cc1)NC(=O)[C@H](CCCCN)NC(=O)[C@H](CO)NC(=O)[C@H](Cc1ccc(O)cc1)NC(=O)[C@H](CC(=O)O)NC(=O)[C@H](CO)NC(=O)[C@@H](NC(=O)[C@H](Cc1ccccc1)NC(=O)[C@@H](NC(=O)CNC(=O)[C@H](CCC(N)=O)NC(=O)C(C)(C)NC(=O)[C@@H](N)Cc1c[nH]cn1)[C@@H](C)O)[C@@H](C)O)C(=O)N[C@@H](CC(=O)O)C(=O)N[C@@H](C)C(=O)N[C@@H](CCCNC(=N)N)C(=O)N[C@@H](C)C(=O)N[C@@H](C)C(=O)N[C@@H](CCCCNC(=O)COCCOCCNC(=O)COCCOCCNC(=O)CC[C@H](NC(=O)CCCCCCCCCCCCCCCC(=O)O)C(=O)O)C(=O)N[C@@H](CC(=O)O)C(=O)N[C@@H](Cc1ccccc1)C(=O)N[C@H](C(=O)N[C@@H](CCC(N)=O)C(=O)N[C@@H](Cc1c[nH]c2ccccc12)C(=O)N[C@@H](CC(C)C)C(=O)N[C@@H](CCS(C)(=O)=O)C(=O)N[C@@H](CC(=O)O)C(=O)N[C@H](C(N)=O)[C@@H](C)O)C(C)C [compound 47] (H-H[Aib]QGTFTSDYSKYLDARAAK([AEEA-AEEA-γGlu-C17 diacid])DFVQWL[Met(O2)]DT-NH2) |  | 1.30 |  | 
4 | CCCCCCCCCCCCCCCC(=O)N[C@@H](CCC(=O)NCCOCCOCC(=O)NCCOCCOCC(=O)NCc1ccc(C[C@H](NC(=O)[C@H](CC(=O)O)NC(=O)[C@H](CO)NC(=O)[C@@H](NC(=O)[C@H](Cc2ccccc2)NC(=O)[C@@H](NC(=O)CNC(=O)[C@H](CCC(N)=O)NC(=O)C(C)(C)NC(=O)[C@@H](N)Cc2c[nH]cn2)[C@@H](C)O)[C@@H](C)O)C(=O)N[C@@H](CO)C(=O)N[C@@H](CCCCN)C(=O)N[C@@H](Cc2ccc(O)cc2)C(=O)N[C@@H](CC(C)C)C(=O)N[C@@H](CC(=O)O)C(=O)N[C@@H](C)C(=O)N[C@@H](CCCNC(=N)N)C(=O)N[C@@H](C)C(=O)N[C@@H](C)C(=O)N[C@@H](CCC(N)=O)C(=O)N[C@@H](CC(=O)O)C(=O)N[C@@H](Cc2ccccc2)C(=O)N[C@H](C(=O)N[C@@H](CCC(N)=O)C(=O)N[C@@H](Cc2c[nH]c3ccccc23)C(=O)N[C@@H](CC(C)C)C(=O)N[C@@H](CCS(C)(=O)=O)C(=O)N[C@@H](CC(=O)O)C(=O)N[C@H](C(N)=O)[C@@H](C)O)C(C)C)cc1)C(=O)O [compound 13] (H-H[Aib]QGTFTSD[Phe(4-CH2NH2)]([AEEA-AEEA-γGlu-Palmitoyl])SKYLDARAAQDFVQWL[Met(O2)]DT-NH2) |  | 2.19 |  | 
5 | CC(C)C[C@H](NC(=O)[C@H](Cc1ccc(O)cc1)NC(=O)[C@H](CCCCN)NC(=O)[C@H](CO)NC(=O)[C@H](Cc1ccc(O)cc1)NC(=O)[C@H](CC(=O)O)NC(=O)[C@H](CO)NC(=O)[C@@H](NC(=O)[C@H](Cc1ccccc1)NC(=O)[C@@H](NC(=O)CNC(=O)[C@H](CCC(N)=O)NC(=O)[C@@H](CO)NC(=O)[C@@H](N)Cc1c[nH]cn1)[C@@H](C)O)[C@@H](C)O)C(=O)N[C@@H](CC(=O)O)C(=O)N[C@@H](C)C(=O)N[C@@H](CCCNC(=N)N)C(=O)N[C@@H](C)C(=O)N[C@@H](C)C(=O)N[C@@H](CCC(N)=O)C(=O)N[C@@H](CCCCNC(=O)COCCOCCNC(=O)COCCOCCNC(=O)CC[C@H](NC(=O)CCCCCCCCCCCCCCCCC(=O)O)C(=O)O)C(=O)N[C@@H](Cc1ccccc1)C(=O)N[C@H](C(=O)N[C@@H](CCC(N)=O)C(=O)N[C@@H](Cc1c[nH]c2ccccc12)C(=O)N[C@@H](CC(C)C)C(=O)N[C@@H](CC(C)C)C(=O)N[C@@H](CC(=O)O)C(=O)N[C@H](C(N)=O)[C@@H](C)O)C(C)C [compound 21] (H-H[dS]QGTFTSDYSKYLDARAAQK([AEEA-AEEA-γGlu-C18 diacid])FVQWLLDT-NH2) |  | 0.17 |  | 
6 | CC(C)C[C@H](NC(=O)[C@H](CC(C)C)NC(=O)[C@H](Cc1c[nH]c2ccccc12)NC(=O)[C@H](CCC(N)=O)NC(=O)[C@@H](NC(=O)[C@H](Cc1ccccc1)NC(=O)[C@H](CC(=O)O)NC(=O)[C@H](CCC(N)=O)NC(=O)[C@H](C)NC(=O)[C@H](C)NC(=O)[C@H](CCCNC(=N)N)NC(=O)C(C)(C)NC(=O)[C@H](CC(=O)O)NC(=O)[C@H](CC(C)C)NC(=O)[C@H](Cc1ccc(O)cc1)NC(=O)[C@H](CCCCN)NC(=O)[C@H](CO)NC(=O)[C@H](Cc1ccc(CNC(=O)COCCOCCNC(=O)COCCOCCNC(=O)CC[C@H](NC(=O)CCCCCCCCCCCCCCC(=O)O)C(=O)O)cc1)NC(=O)[C@H](CC(=O)O)NC(=O)[C@H](CO)NC(=O)[C@@H](NC(=O)[C@H](Cc1ccccc1)NC(=O)[C@@H](NC(=O)CNC(=O)[C@H](CCC(N)=O)NC(=O)C(C)(C)NC(=O)[C@@H](N)Cc1c[nH]cn1)[C@@H](C)O)[C@@H](C)O)C(C)C)C(=O)N[C@@H](C)C(=O)N[C@H](C(=O)N[C@@H](CCCCNC(=O)CC[C@H](N)C(=O)O)C(N)=O)[C@@H](C)O [compound 11] (H-H[Aib]QGTFTSD[Phe(4-CH2NH2)]([AEEA-AEEA-γGlu-C16 diacid])SKYLD[Aib]RAAQDFVQWLLATK(γGlu)-NH2) |  | 4.15 |  | 1.03 nM
7 | CC(C)C[C@H](NC(=O)[C@H](Cc1ccc(O)cc1)NC(=O)[C@H](CCCCN)NC(=O)[C@H](CO)NC(=O)[C@H](Cc1ccc(O)cc1)NC(=O)[C@H](CC(=O)O)NC(=O)[C@H](CO)NC(=O)[C@@H](NC(=O)[C@H](Cc1ccccc1)NC(=O)[C@@H](NC(=O)CNC(=O)[C@H](CCC(N)=O)NC(=O)C(C)(C)NC(=O)[C@@H](N)Cc1c[nH]cn1)[C@@H](C)O)[C@@H](C)O)C(=O)N[C@@H](CC(=O)O)C(=O)N[C@@H](C)C(=O)N[C@@H](CCCNC(=N)N)C(=O)N[C@@H](C)C(=O)N[C@@H](C)C(=O)N[C@@H](CCCCNC(=O)COCCOCCNC(=O)COCCOCCNC(=O)CC[C@H](NC(=O)CCCCCCCCCCCCCCC(=O)O)C(=O)O)C(=O)N[C@@H](CC(=O)O)C(=O)N[C@@H](Cc1ccccc1)C(=O)N[C@H](C(=O)N[C@@H](CCC(N)=O)C(=O)N[C@@](C)(Cc1c[nH]c2ccccc12)C(=O)N[C@@H](CC(C)C)C(=O)N[C@@H](CCS(C)(=O)=O)C(=O)N[C@@H](CC(=O)O)C(=O)N[C@H](C(N)=O)[C@@H](C)O)C(C)C [compound 78] (H-H[Aib]QGTFTSDYSKYLDARAAK([AEEA-AEEA-γGlu-C16 diacid])DFVQ[αMeW]L[Met(O2)]DT-NH2) |  | 3 |  | 
